From patent publication US8192962B2, “Processes for detecting toxic substances” (Daikin Industries, Ltd., priority 2001, dated 2012)

Tested on: Mitochondria-located protein genes
Experiment: DNA chip mRNA expression in yeast, mitochondria-located protein genes (Table 2)
Type: cell-based, Saccharomyces cerevisiae S288C
Settings: cells incubated two hours with the chemical substance
Description: Yeast (Saccharomyces cerevisiae S288C (α SUC2mal mel gap2 CUP1)) were incubated at 25° C. on YPD medium (yeast extract 1%, polypepton 2%, glucose 2%). One of toxic chemical substances was added to the cells at logarithmic growth phase, and the cells were further incubated for two hours. Cells were cultured without any chemical substance in the same condition, and were used as control. Concentrations of the chemical substances were defined to inhibit the growth of the yeast but not lead to death.
After completion of the incubation, the culture was centrifuged to collect the cells. To the cells, sodium acetate buffer (50 mM sodium acetate, 10 mM EDTA, 1% SDS) was added, and the mixture was shaken at 65° C. for five minutes, followed by returning to room temperature, and obtaining the supernatant, of which the procedures were repeated two times. To the supernatant, ½ amount of a solution of phenol/chloroform was added, and the mixture was centrifuged to give a supernatant, which was added with an equal amount of chloroform, and the mixture was centrifuged to give a supernatant. To the supernatant, an equal amount of isopropanol containing 0.3 M sodium acetate was added, and the mixture was allowed to stand at room temperature for 30 minutes, after which the mixture was centrifuged to give a sediment of the whole RNAs. Seventy % ethanol was added to the sediment, and the mixture was again centrifuged to give a sediment, which was then dried and dissolved in water. mRNA was isolated from the whole RNAs as followings. In view of the fact that a poly A chain is attached to the 3′ terminus of mRNA, a polynucleotide having a poly T structure which was immobilized on the surface of latex beads was used to trap the mRNA, and then the mRNA was washed and eluted with spine column (Oligotex-dT30<Super>mRNA Purification Kit, Takara). Reverse transcription of the mRNA was conducted with a reverse transcriptase (Super Script II Reverse Transcriptase; catalogue No. 18064-014, GibcoBRL) using fluorescence-labeled nucleotides to give cDNAs that were introduced with Cy3-dUTP or Cy5-dUTP during the reverse transcription.
The labeled cDNAs were dissolved in TE buffer (10mM Tris-HCl/1 mM EDTA, pH8.0), and the solution was dropped on the DNA chip containing the whole genes of yeast (DNA Chip Research Inc. Japan) so that the cDNAs were hybridized on the DNA chip at 65° C. for over 12 hours. The fluoresces intensity of the DNA chip was read with a scanner, and the ratio relative to the fluorescence intensity resulting from the absence of chemical substance was estimated as the following, which is shown in Tables 1 to 9: […]

## CCCCC[C@H](O)CC(=O)CCc1ccc(O)c(OC)c1 [(13), gingerol]
Yeast gene YAL039C
  The level of expressed mRNA in the presence of chemical substance/The level of expressed mRNA in the absence of chemical substance: 1.6
Yeast gene YAL044C
  The level of expressed mRNA in the presence of chemical substance/The level of expressed mRNA in the absence of chemical substance: 1.1
Yeast gene YBR291C
  The level of expressed mRNA in the presence of chemical substance/The level of expressed mRNA in the absence of chemical substance: 1.0
Yeast gene YCL009C
  The level of expressed mRNA in the presence of chemical substance/The level of expressed mRNA in the absence of chemical substance: 1.6
Yeast gene YDL067C
  The level of expressed mRNA in the presence of chemical substance/The level of expressed mRNA in the absence of chemical substance: 0.6
Yeast gene YDR268W
  The level of expressed mRNA in the presence of chemical substance/The level of expressed mRNA in the absence of chemical substance: 1.0
Yeast gene YDR377W
  The level of expressed mRNA in the presence of chemical substance/The level of expressed mRNA in the absence of chemical substance: 0.7
Yeast gene YDR529C
  The level of expressed mRNA in the presence of chemical substance/The level of expressed mRNA in the absence of chemical substance: 0.7
Yeast gene YGL068W
  The level of expressed mRNA in the presence of chemical substance/The level of expressed mRNA in the absence of chemical substance: 1.0
Yeast gene YGL187C
  The level of expressed mRNA in the presence of chemical substance/The level of expressed mRNA in the absence of chemical substance: 0.7
Yeast gene YGL191W
  The level of expressed mRNA in the presence of chemical substance/The level of expressed mRNA in the absence of chemical substance: 1.1
Yeast gene YGR029W
  The level of expressed mRNA in the presence of chemical substance/The level of expressed mRNA in the absence of chemical substance: 1.0
Yeast gene YGR112W
  The level of expressed mRNA in the presence of chemical substance/The level of expressed mRNA in the absence of chemical substance: 1.1
Yeast gene YGR220C
  The level of expressed mRNA in the presence of chemical substance/The level of expressed mRNA in the absence of chemical substance: 1.1
Yeast gene YHR037W
  The level of expressed mRNA in the presence of chemical substance/The level of expressed mRNA in the absence of chemical substance: 1.1
Yeast gene YIL070C
  The level of expressed mRNA in the presence of chemical substance/The level of expressed mRNA in the absence of chemical substance: 0.7
Yeast gene YIL094C
  The level of expressed mRNA in the presence of chemical substance/The level of expressed mRNA in the absence of chemical substance: 0.7
Yeast gene YJL096W
  The level of expressed mRNA in the presence of chemical substance/The level of expressed mRNA in the absence of chemical substance: 0.7
Yeast gene YKL150W
  The level of expressed mRNA in the presence of chemical substance/The level of expressed mRNA in the absence of chemical substance: 1.8
Yeast gene YKL194C
  The level of expressed mRNA in the presence of chemical substance/The level of expressed mRNA in the absence of chemical substance: 1.1
Yeast gene YLL001W
  The level of expressed mRNA in the presence of chemical substance/The level of expressed mRNA in the absence of chemical substance: 1.7
Yeast gene YMR023C
  The level of expressed mRNA in the presence of chemical substance/The level of expressed mRNA in the absence of chemical substance: 1.1
Yeast gene YMR203W
  The level of expressed mRNA in the presence of chemical substance/The level of expressed mRNA in the absence of chemical substance: 1.1
Yeast gene YMR267W
  The level of expressed mRNA in the presence of chemical substance/The level of expressed mRNA in the absence of chemical substance: 0.7
Yeast gene YNL284C
  The level of expressed mRNA in the presence of chemical substance/The level of expressed mRNA in the absence of chemical substance: 1.0
Yeast gene YOR187W
  The level of expressed mRNA in the presence of chemical substance/The level of expressed mRNA in the absence of chemical substance: 0.7
Yeast gene YOR316C
  The level of expressed mRNA in the presence of chemical substance/The level of expressed mRNA in the absence of chemical substance: 1.6
Yeast gene YPL215W
  The level of expressed mRNA in the presence of chemical substance/The level of expressed mRNA in the absence of chemical substance: 0.7
Yeast gene YPR134W
  The level of expressed mRNA in the presence of chemical substance/The level of expressed mRNA in the absence of chemical substance: 1.1
